Target: T1, hCAII (Homo sapiens, UniProt P00918+Q96SW2)
T1 construct: HEK293 cells, a line known to abundantly express hCAII; endogenous in cells; host or cells: HEK293
Experiment: single-point hCAII degradation screen in HEK293 cells, western blot
Assay type: cell-based
Conditions: 5 μM, 24 h; for activity in single-point screen (hCAII degradation): vs DMSO vehicle
Method: Following the confirmation of candidate hCAII’s in vitro activity, candidate degraders 1–10 were evaluated for their degradation of hCAII using HEK293 cells, a line known to abundantly express hCAII.[48] To obtain a preliminary evaluation of the activity of these compounds, an initial single-point screen was performed with HEK293 cells dosed with individual degrader candidates at a final concentration of 5 μM for 24 h prior to cell lysis. The relative abundance of hCAII in whole cell lysates was then evaluated via western blot analysis (see the Experimental Section for details).
Figure 2 Single-point activity screen of degrader candidates 1–10. Western blot analysis of HEK293 cells treated with degrader candidate (5 μM final concentration) or vehicle (DMSO) for 24 h. […] Degraders 4 and 5 were identified as active from this screen. Full images of the western blots are provided within the Supporting Information (Figure S1).
HEK293 cells were cultured in Dulbecco’s modified Eagle’s medium (DMEM, Gibco, 4.5 g/L glucose) supplemented with 10% fetal bovine serum (FBS), 1% sodium pyruvate, and 1% penicillin/streptomycin. Cells were grown at 37 °C in a humidified 5% CO2 atmosphere and regularly tested for mycoplasma.
After reaching 90% confluency, HEK293 cells were trypsinized, counted, and plated with 2 mL media at 2 × 10^6 cells per well on a tissue-culture-treated, 6-well plate. At the appropriate number of hours before reaching ∼90% confluency, cells were treated with DMSO solutions of the appropriate compounds (final concentration 0.5% DMSO per well). Upon reaching 90% confluency, typically 72 h, culture media were removed and the cells were washed with cold Dulbecco’s phosphate-buffered saline (DPBS). Lysis buffer, composed of cell lysis buffer (Cell Signaling Technology, 9803), protease inhibitor cocktail (Cell Signaling Technology, 5872), and 1 mM phenylmethylsulfonylfluoride, was added to each well, and the plates were rocked at 4 °C for 20 min. Cells were then scraped from the bottom of the plates, and the supernatant was collected after spinning down at 14,000g at 4 °C for 10 min and frozen at −80 °C. Lysates were thawed on ice, and the total protein concentration was measured using a Pierce bicinchoninic acid protein assay (Thermo Fisher Scientific, 23225). […] The immunoblot was then analyzed using the ImageJ software as an 8-bit image. The brightness and contrast of the image were adjusted, and the integrated density was calculated for each protein band using the gel lane analysis tool. Relative hCAII expression was calculated by normalizing the hCAII/β-actin ratio in compound-treated wells to the hCAII/β-actin ratio in vehicle (DMSO)-treated wells and indicated as “hCAII Abundance (% DMSO)”.

Row | SMILES | protein degradation quantified by western blot | activity in single-point screen (hCAII degradation)
1 | NS(=O)(=O)c1ccc(C(=O)NCCCOCCCCOCCCNc2cccc3c2C(=O)N(C2CCC(=O)NC2=O)C3=O)cc1 (stereo not shown) [Compound 4, N-(3-(4-(3-((2-(2,6-Dioxopiperidin-3-yl)-1,3-dioxoisoindolin-4-yl)amino)propoxy)butoxy)propyl)-4-sulfamoylbenzamide] | 64% | active
2 | NS(=O)(=O)c1ccc(C(=O)NCCCOCCOCCOCCCNc2cccc3c2C(=O)N(C2CCC(=O)NC2=O)C3=O)cc1 (stereo not shown) [Compound 5, N-(3-(2-(2-(3-((2-(2,6-Dioxopiperidin-3-yl)-1,3-dioxoisoindolin-4-yl)amino)propoxy)ethoxy)ethoxy)propyl)-4-sulfamoylbenzamide] | 85% | active

Reference: PMC9969396, “Development of Human Carbonic Anhydrase II Heterobifunctional Degraders” (Journal of Medicinal Chemistry, 2023)
